Experimental data reported in ChEMBL document CHEMBL1201862, “PubChem BioAssay data set” (2004).
Counter-ions that a name gives are not always drawn.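 96-well plates; 48 h exposure; 5 concentrations. Endpoints by linear interpolation between flanking doses. Not reached: highest tested concentration assigned. GI50: concentration for 50% inhibition of growth.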 Active and inactive are the calls of the source. Rule as the data show it: active = GI50 up to about 1.1 µM and inactive = higher.

Assays:
Assay in all cases: NCI anticancer screen, dose series, 48 h
[1] = system: SK-MEL-5
[2] = system: MOLT-4
[3] = system: UACC-62
[4] = system: SN12C
[5] = system: TK-10
[6] = system: KM12
[7] = system: DMS-114
[8] = system: HOP-92
[9] = system: SF-295
[10] = system: NCI-H522
[11] = system: ACHN
[12] = system: Malme-3M
[13] = system: COLO 205
[14] = system: HL-60
[15] = system: OVCAR-3
[16] = system: MDA-MB-231
[17] = system: NCI/ADR-RES
[18] = system: NCI-H226
[19] = system: DU-145
[20] = system: EKVX

SMILES | GI50 [1] | GI50 [2] | GI50 [3] | GI50 [4] | GI50 [5] | GI50 [6] | GI50 [7] | GI50 [8] | GI50 [9] | GI50 [10] | GI50 [11] | GI50 [12] | GI50 [13] | GI50 [14] | GI50 [15] | GI50 [16] | GI50 [17] | GI50 [18] | GI50 [19] | GI50 [20]
CC1(C)CC(=O)c2c(oc3cc(O)c(O)cc23)C1 | 17.7 µM (inactive) | 21.3 µM (inactive) | 17.3 µM (inactive) | 39.5 µM (inactive) | > 100 µM (inactive) | 23.9 µM (inactive) | 13.2 µM (inactive) | 36.3 µM (inactive) | 43.3 µM (inactive) | 11.5 µM (inactive) | 31.3 µM (inactive) | 32.7 µM (inactive) | 36.6 µM (inactive) | 16 µM (inactive) | – | – | – | – | – | –
COc1ccc(C(=O)Cn2c(C(C)=O)nc3ccccc32)cc1 | 4.15 µM (inactive) | 4.98 µM (inactive) | 6.89 µM (inactive) | 16.4 µM (inactive) | > 76.6 µM (inactive) | 7.1 µM (inactive) | – | 12.7 µM (inactive) | 13.1 µM (inactive) | 3.86 µM (inactive) | 8.59 µM (inactive) | 41 µM (inactive) | 18.3 µM (inactive) | 3.41 µM (inactive) | 6.31 µM (inactive) | 4.82 µM (inactive) | 3.55 µM (inactive) | > 74 µM (inactive) | 30.7 µM (inactive) | 76.9 µM (inactive)
C=CCc1cc(OC)c2c(c1)C(OC)CC(c1ccc(OC)c(OC)c1)O2 (stereo not drawn) | > 100 µM (inactive) | 45.5 µM (inactive) | > 100 µM (inactive) | > 100 µM (inactive) | > 100 µM (inactive) | > 100 µM (inactive) | 67.5 µM (inactive) | – | > 100 µM (inactive) | – | 71.9 µM (inactive) | 55.1 µM (inactive) | > 100 µM (inactive) | 75 µM (inactive) | > 100 µM (inactive) | – | – | – | – | > 100 µM (inactive)
Cc1nnc(S(=O)(=O)c2ccc(/N=N/c3c(N)nc(N)nc3N)cc2)s1 | > 100 µM (inactive) | > 100 µM (inactive) | > 100 µM (inactive) | > 100 µM (inactive) | > 100 µM (inactive) | > 100 µM (inactive) | – | > 100 µM (inactive) | > 100 µM (inactive) | > 100 µM (inactive) | > 100 µM (inactive) | > 100 µM (inactive) | > 100 µM (inactive) | 33.4 µM (inactive) | > 100 µM (inactive) | > 100 µM (inactive) | > 100 µM (inactive) | > 100 µM (inactive) | > 100 µM (inactive) | > 100 µM (inactive)
O=C(O)[C@@H]1C2CC([C@@H]1C(=O)O)[C@H](N1C(=O)CCC1=O)[C@@H]2Br (stereo partly drawn) | > 100 µM (inactive) | > 100 µM (inactive) | > 100 µM (inactive) | > 100 µM (inactive) | > 100 µM (inactive) | > 100 µM (inactive) | – | > 100 µM (inactive) | > 100 µM (inactive) | > 100 µM (inactive) | > 100 µM (inactive) | > 100 µM (inactive) | > 100 µM (inactive) | > 100 µM (inactive) | > 100 µM (inactive) | > 100 µM (inactive) | > 100 µM (inactive) | > 100 µM (inactive) | > 100 µM (inactive) | > 100 µM (inactive)
Fc1ccc(C(=C2CCN(CCc3ccc4[nH]c(=S)[nH]c4c3)CC2)c2ccc(F)cc2)cc1 | 1.84 µM (inactive) | 3 µM (inactive) | 5.32 µM (inactive) | 4.52 µM (inactive) | 2.17 µM (inactive) | 6.47 µM (inactive) | – | 2.62 µM (inactive) | 6.92 µM (inactive) | 1.52 µM (inactive) | 8.83 µM (inactive) | 1.47 µM (inactive) | 1.72 µM (inactive) | 2.33 µM (inactive) | 2.1 µM (inactive) | 4.43 µM (inactive) | 8.59 µM (inactive) | 22 µM (inactive) | 2.98 µM (inactive) | 3.51 µM (inactive)
Cc1cc(C)nc(NS(=O)(=O)c2ccc(NNc3c4ccccc4nc4c(C(=O)Nc5ccc(S(=O)(=O)Nc6ncccn6)cc5)cccc34)cc2)n1 | 21.2 µM (inactive) | 32.5 µM (inactive) | 25.2 µM (inactive) | 20.4 µM (inactive) | 50.9 µM (inactive) | 34.5 µM (inactive) | – | 27.3 µM (inactive) | 32.4 µM (inactive) | 18.7 µM (inactive) | 23.3 µM (inactive) | 26.7 µM (inactive) | 27.1 µM (inactive) | 25.7 µM (inactive) | 19.2 µM (inactive) | 31.3 µM (inactive) | > 100 µM (inactive) | 22.5 µM (inactive) | 31.8 µM (inactive) | 19.5 µM (inactive)
Cc1ccn2c(c1)nc1nc3ccccc3nc12 | > 100 µM (inactive) | – | > 100 µM (inactive) | – | > 100 µM (inactive) | > 100 µM (inactive) | > 100 µM (inactive) | > 100 µM (inactive) | > 100 µM (inactive) | > 100 µM (inactive) | 96.6 µM (inactive) | – | > 100 µM (inactive) | > 100 µM (inactive) | > 100 µM (inactive) | – | – | > 100 µM (inactive) | – | > 100 µM (inactive)
NN/C(Cc1ccccc1)=N\NO | 53.7 µM (inactive) | > 100 µM (inactive) | 56.2 µM (inactive) | – | > 100 µM (inactive) | 17.4 µM (inactive) | 25.5 µM (inactive) | > 100 µM (inactive) | > 100 µM (inactive) | – | 69.3 µM (inactive) | > 100 µM (inactive) | > 100 µM (inactive) | > 100 µM (inactive) | > 100 µM (inactive) | – | – | > 100 µM (inactive) | – | > 100 µM (inactive)
C=C1CC[C@@]2(C)[C@@H]([C@@H]1C)[C@H]1CC[C@@H]3[C@@]4(C)CC[C@H](O)C(C)(C)[C@@H]4CC[C@@]3(C)[C@]1(C)C[C@@H]2O | 5.16 µM (inactive) | 3.22 µM (inactive) | 7.45 µM (inactive) | 2.52 µM (inactive) | 5.62 µM (inactive) | 3.65 µM (inactive) | – | 1.99 µM (inactive) | 3.49 µM (inactive) | 1.95 µM (inactive) | 2.11 µM (inactive) | 3.25 µM (inactive) | 4.23 µM (inactive) | 1.53 µM (inactive) | 2.37 µM (inactive) | 1.96 µM (inactive) | 3.27 µM (inactive) | 5 µM (inactive) | 4.57 µM (inactive) | 3 µM (inactive)
COc1ccc(NC(=O)/C(=N\NC(=O)C[n+]2ccccc2)c2c(O)c3ccc(O)cc3oc2=O)c([N+](=O)[O-])c1 | > 100 µM (inactive) | 85.5 µM (inactive) | > 100 µM (inactive) | > 100 µM (inactive) | > 100 µM (inactive) | 40.1 µM (inactive) | – | 32.3 µM (inactive) | > 100 µM (inactive) | > 100 µM (inactive) | > 100 µM (inactive) | > 100 µM (inactive) | > 100 µM (inactive) | > 100 µM (inactive) | > 100 µM (inactive) | > 100 µM (inactive) | > 100 µM (inactive) | > 100 µM (inactive) | > 100 µM (inactive) | > 100 µM (inactive)
Cc1ccc(Nc2ccc(Nc3ccc(C)cc3S(=O)(=O)O)c3c2C(=O)c2ccccc2C3=O)c(S(=O)(=O)O)c1 | > 100 µM (inactive) | > 100 µM (inactive) | > 100 µM (inactive) | > 100 µM (inactive) | > 100 µM (inactive) | > 100 µM (inactive) | > 100 µM (inactive) | – | – | > 100 µM (inactive) | > 100 µM (inactive) | > 100 µM (inactive) | > 100 µM (inactive) | > 100 µM (inactive) | > 100 µM (inactive) | – | – | > 100 µM (inactive) | – | > 100 µM (inactive)
CC[C@@H]1C[C@H]2CC3c4[nH]c5ccc(O)cc5c4CCN(C2)C31 | – | > 100 µM (inactive) | > 100 µM (inactive) | > 100 µM (inactive) | > 100 µM (inactive) | > 100 µM (inactive) | > 100 µM (inactive) | 36.8 µM (inactive) | > 100 µM (inactive) | – | > 100 µM (inactive) | > 100 µM (inactive) | > 100 µM (inactive) | > 100 µM (inactive) | > 100 µM (inactive) | – | – | > 100 µM (inactive) | – | > 100 µM (inactive)
O=C1c2cccc3cccc(c23)C(=O)N1CCCNCCCCNCCCNCCCN1C(=O)c2cccc3cccc(c23)C1=O [BISNAPHTHALIMIDOPROPYL SPERMIDINE TRIHYDROBROMIDE] | 2.02 µM (inactive) | 0.0333 µM (active) | 0.458 µM (active) | 0.521 µM (active) | 2.55 µM (inactive) | 0.556 µM (active) | – | 0.935 µM (active) | 5.92 µM (inactive) | 0.0859 µM (active) | 1.22 µM (inactive) | 0.513 µM (active) | 0.348 µM (active) | 0.172 µM (active) | 0.662 µM (active) | 1.06 µM (active) | 19.9 µM (inactive) | 0.505 µM (active) | 0.371 µM (active) | 1.18 µM (inactive)
Cc1cc(N)c2ccccc2[n+]1CCCCCCCCCC[n+]1c(C)cc(N)c2ccccc21 [DEQUALINIUM CHLORIDE] | 0.528 µM (active) | 0.964 µM (active) | 1.82 µM (inactive) | 1.45 µM (inactive) | 4.09 µM (inactive) | 0.69 µM (active) | – | 3.62 µM (inactive) | 1.28 µM (inactive) | 0.752 µM (active) | 1.11 µM (active) | 3.05 µM (inactive) | 1.33 µM (inactive) | 0.533 µM (active) | 2.27 µM (inactive) | 1.82 µM (inactive) | 10.5 µM (inactive) | 3.37 µM (inactive) | 2.74 µM (inactive) | 1.82 µM (inactive)
